Measured values: patent US9399638B2, “Substituted pyridine compounds as CRAC modulators” (LUPIN LIMITED, priority 2012, dated 2016)

test system: IL-2 secretion by Jurkat T cells; assay: Inhibition of IL-2 secretion; format: cell-based; settings: Homo sapiens; Jurkat T cells stimulated with PHA, 20 to 24 hours, IL-2 by ELISA

IC50 [nM]	SMILES
> 1000	CCc1ncc(-c2nn(C)c(=O)o2)cc1-c1ccc(C(=O)Nc2c(F)cccc2F)n1C [Example 63, N-(2,6-Difluorophenyl)-5-(2-ethyl-5-(4-methyl-5-oxo-4,5-dihydro-1,3,4-oxadiazol-2-yl)pyridin-3-yl)-1-methyl-1H-pyrrole-2-carboxamide]
> 1000	CCc1cc(-c2ccc(NC(=O)c3c(F)cccc3F)cc2)nc(-c2nn(C)c(=O)o2)c1 [Example 64, N-(4-(4-Ethyl-6-(4-methyl-5-oxo-4,5-dihydro-1,3,4-oxadiazol-2-yl)pyridin-2-yl)phenyl)-2,6-difluorobenzamide]
> 1000	CCc1cc(-c2nn(C)c(=O)o2)cnc1-c1ccc(NC(=O)c2c(F)cccc2F)cc1 [Example 65, N-(4-(3-Ethyl-5-(4-methyl-5-oxo-4,5-dihydro-1,3,4-oxadiazol-2-yl)pyridin-2-yl)phenyl)-2,6-difluorobenzamide]
100 to 1000	Cn1nc(-c2cnc(-c3ccc(NC(=O)c4c(F)cccc4F)cc3)c(C3CC3)c2)oc1=O [Example 66, N-(4-(3-Cyclopropyl-5-(4-methyl-5-oxo-4,5-dihydro-1,3,4-oxadiazol-2-yl)pyridin-2-yl)phenyl)-2,6-difluorobenzamide]
> 1000	Cn1nc(-c2cc(C3CC3)cnc2-c2ccc(NC(=O)c3c(F)cccc3F)cc2)oc1=O [Example 67, N-(4-(5-Cyclopropyl-3-(4-methyl-5-oxo-4,5-dihydro-1,3,4-oxadiazol-2-yl)pyridin-2-yl)phenyl)-2,6-difluorobenzamide]
> 1000	CCc1ncc(-c2ccc(NC(=O)c3c(F)cccc3F)cc2)cc1-c1nn(C)c(=O)o1 [Example 68, N-(4-(6-Ethyl-5-(4-methyl-5-oxo-4,5-dihydro-1,3,4-oxadiazol-2-yl)pyridin-3-yl)phenyl)-2,6-difluorobenzamide]

The next lines start with the molecule.

SMILES	IC50 [nM]
Cc1ncc(-c2nn(C)c(=O)o2)cc1-c1ccc(C(=O)Nc2c(F)cccc2F)s1 [Example 58, N-(2,6-Difluorophenyl)-5-(2-methyl-5-(4-methyl-5-oxo-4,5-dihydro-1,3,4-oxadiazol-2-yl)pyridin-3-yl)thiophene-2-carboxamide]	100 to 1000
Cn1nc(-c2cnc(C3CC3)c(-c3ccc(C(=O)Nc4c(F)cccc4F)s3)c2)oc1=O [Example 59, 5-(2-Cyclopropyl-5-(4-methyl-5-oxo-4,5-dihydro-1,3,4-oxadiazol-2-yl)pyridin-3-yl)-N-(2,6-difluorophenyl)thiophene-2-carboxamide]	< 100
Cn1nc(-c2cnc(C(F)(F)F)c(-c3ccc(C(=O)Nc4c(F)cccc4F)s3)c2)oc1=O [Example 60, N-(2,6-Difluorophenyl)-5-(5-(4-methyl-5-oxo-4,5-dihydro-1,3,4-oxadiazol-2-yl)-2-(trifluoromethyl)pyridin-3-yl)thiophene-2-carboxamide]	< 100
CNc1ncc(-c2nn(C)c(=O)o2)cc1-c1ccc(C(=O)Nc2c(F)cccc2F)s1 [Example 61, N-(2,6-Difluorophenyl)-5-(5-(4-methyl-5-oxo-4,5-dihydro-1,3,4-oxadiazol-2-yl)-2-(methylamino)pyridin-3-yl)thiophene-2-carboxamide]	< 100
Cc1ncc(-c2nn(C)c(=O)o2)cc1-c1ccc(C(=O)Nc2c(F)cccc2F)n1C [Example 62, N-(2,6-Difluorophenyl)-1-methyl-5-(2-methyl-5-(4-methyl-5-oxo-4,5-dihydro-1,3,4-oxadiazol-2-yl)pyridin-3-yl)-1H-pyrrole-2-carboxamide]	100 to 1000
